Laboratory results as given in PubChem BioAssay AID2060599 (Molecular Pharmacology Branch, DTP, NCI, 2025).
pIC50: −log10 of the molar value.

System: 817829-284-R-J1-PDC complex spheroids, viability
Assay: Anticancer human tumor 817829-284-R-J1-PDC patient-derived colon adenocarcinoma cell line growth inhibition [CLK]
Settings: curve of first compound; second compound 10 µM
Outline: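 Multi-cell-type spheroids combined patient-derived tumor cells with HUVEC endothelial cells and human mesenchymal stem cells. Paired agents were dosed in half-log steps down from about clinical Cmax, or from 10 microM where Cmax was unknown.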
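Also: spheroids exposed to the agents for seven days before readout.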

Question: With `Cn1ncnc1[C@H]1c2n[nH]c(=O)c3cc(F)cc(c23)N[C@@H]1c1ccc(F)cc1` + CNC(=O)c1ccc(Nc2nc(OC3CCCC3)c3c(-c4ccc5nc(C)oc5c4)c[nH]c3n2)c(OC)c1 as the molecule, how does the pIC50 read?
Answer: > 9.50

Question: `Nc1ccn(C2OC(CO)C(O)C2(F)F)c(=O)n1` (stereo unspecified) + CNC(=O)c1ccc(Nc2nc(OC3CCCC3)c3c(-c4ccc5nc(C)oc5c4)c[nH]c3n2)c(OC)c1 was tested. Which pIC50 did it give?
Answer: > 7.50

Question: `O=C(c1cc(Cc2n[nH]c(=O)c3ccccc23)ccc1F)N1CCN(C(=O)C2CC2)CC1` + CNC(=O)c1ccc(Nc2nc(OC3CCCC3)c3c(-c4ccc5nc(C)oc5c4)c[nH]c3n2)c(OC)c1 was tested. Which pIC50 did it give?
Answer: > 7.50

Question: `O=c1[nH]cc(F)c(=O)[nH]1` + CNC(=O)c1ccc(Nc2nc(OC3CCCC3)c3c(-c4ccc5nc(C)oc5c4)c[nH]c3n2)c(OC)c1 was tested. Which pIC50 did it give?
Answer: > 7.50

Same assay, conditions: second compound 0.0316 µM; first compound 0.000316 µM; stronger effect = lower value

Question: How did the viability, T/C turn out when `Cn1ncnc1[C@H]1c2n[nH]c(=O)c3cc(F)cc(c23)N[C@@H]1c1ccc(F)cc1` + CNC(=O)c1ccc(Nc2nc(OC3CCCC3)c3c(-c4ccc5nc(C)oc5c4)c[nH]c3n2)c(OC)c1 was run?
Answer: 26.6%

Same assay, conditions: second compound 0.0316 µM; first compound 0.001 µM; stronger effect = lower value

Question: `Cn1ncnc1[C@H]1c2n[nH]c(=O)c3cc(F)cc(c23)N[C@@H]1c1ccc(F)cc1` + CNC(=O)c1ccc(Nc2nc(OC3CCCC3)c3c(-c4ccc5nc(C)oc5c4)c[nH]c3n2)c(OC)c1 was tested. Which viability, T/C did it give?
Answer: 36.8%

Same assay, conditions: second compound 0.0316 µM; first compound 0.00316 µM; stronger effect = lower value

Question: For `CCc1c2c(nc3ccc(O)cc13)-c1cc3c(c(=O)n1C2)COC(=O)[C@]3(O)CC` + CNC(=O)c1ccc(Nc2nc(OC3CCCC3)c3c(-c4ccc5nc(C)oc5c4)c[nH]c3n2)c(OC)c1, which viability, T/C is on record?
Answer: 18.9%

Question: How did the viability, T/C turn out when `Cn1ncnc1[C@H]1c2n[nH]c(=O)c3cc(F)cc(c23)N[C@@H]1c1ccc(F)cc1` + CNC(=O)c1ccc(Nc2nc(OC3CCCC3)c3c(-c4ccc5nc(C)oc5c4)c[nH]c3n2)c(OC)c1 was run?
Answer: 27.3%

Same assay, conditions: second compound 0.0316 µM; first compound 0.01 µM; stronger effect = lower value

Question: `CCc1c2c(nc3ccc(O)cc13)-c1cc3c(c(=O)n1C2)COC(=O)[C@]3(O)CC` + CNC(=O)c1ccc(Nc2nc(OC3CCCC3)c3c(-c4ccc5nc(C)oc5c4)c[nH]c3n2)c(OC)c1 was tested. Which viability, T/C did it give?
Answer: 16.6%

Question: How did the viability, T/C turn out when `Cn1ncnc1[C@H]1c2n[nH]c(=O)c3cc(F)cc(c23)N[C@@H]1c1ccc(F)cc1` + CNC(=O)c1ccc(Nc2nc(OC3CCCC3)c3c(-c4ccc5nc(C)oc5c4)c[nH]c3n2)c(OC)c1 was run?
Answer: 31.1%

Same assay, conditions: second compound 0.0316 µM; first compound 0.0316 µM; stronger effect = lower value

Question: For `CCc1c2c(nc3ccc(O)cc13)-c1cc3c(c(=O)n1C2)COC(=O)[C@]3(O)CC` + CNC(=O)c1ccc(Nc2nc(OC3CCCC3)c3c(-c4ccc5nc(C)oc5c4)c[nH]c3n2)c(OC)c1, which viability, T/C is on record?
Answer: 13.2%

Question: For `Cn1ncnc1[C@H]1c2n[nH]c(=O)c3cc(F)cc(c23)N[C@@H]1c1ccc(F)cc1` + CNC(=O)c1ccc(Nc2nc(OC3CCCC3)c3c(-c4ccc5nc(C)oc5c4)c[nH]c3n2)c(OC)c1, which viability, T/C is on record?
Answer: 25.3%

Question: `Nc1ccn(C2OC(CO)C(O)C2(F)F)c(=O)n1` (stereo unspecified) + CNC(=O)c1ccc(Nc2nc(OC3CCCC3)c3c(-c4ccc5nc(C)oc5c4)c[nH]c3n2)c(OC)c1 was tested. Which viability, T/C did it give?
Answer: 7.4%

Question: How did the viability, T/C turn out when `O=C(c1cc(Cc2n[nH]c(=O)c3ccccc23)ccc1F)N1CCN(C(=O)C2CC2)CC1` + CNC(=O)c1ccc(Nc2nc(OC3CCCC3)c3c(-c4ccc5nc(C)oc5c4)c[nH]c3n2)c(OC)c1 was run?
Answer: 30.4%

Question: For `O=c1[nH]cc(F)c(=O)[nH]1` + CNC(=O)c1ccc(Nc2nc(OC3CCCC3)c3c(-c4ccc5nc(C)oc5c4)c[nH]c3n2)c(OC)c1, which viability, T/C is on record?
Answer: 37.3%

Same assay, conditions: second compound 0.0316 µM; first compound 0.1 µM; stronger effect = lower value

Question: Which viability, T/C does the source give for `CCc1c2c(nc3ccc(O)cc13)-c1cc3c(c(=O)n1C2)COC(=O)[C@]3(O)CC` + CNC(=O)c1ccc(Nc2nc(OC3CCCC3)c3c(-c4ccc5nc(C)oc5c4)c[nH]c3n2)c(OC)c1 here?
Answer: 9.4%

Question: Which viability, T/C does the source give for `Cn1ncnc1[C@H]1c2n[nH]c(=O)c3cc(F)cc(c23)N[C@@H]1c1ccc(F)cc1` + CNC(=O)c1ccc(Nc2nc(OC3CCCC3)c3c(-c4ccc5nc(C)oc5c4)c[nH]c3n2)c(OC)c1 here?
Answer: 23.4%

Question: With `Nc1ccn(C2OC(CO)C(O)C2(F)F)c(=O)n1` (stereo unspecified) + CNC(=O)c1ccc(Nc2nc(OC3CCCC3)c3c(-c4ccc5nc(C)oc5c4)c[nH]c3n2)c(OC)c1 as the molecule, how does the viability, T/C read?
Answer: 6.76%

Question: How did the viability, T/C turn out when `O=C(c1cc(Cc2n[nH]c(=O)c3ccccc23)ccc1F)N1CCN(C(=O)C2CC2)CC1` + CNC(=O)c1ccc(Nc2nc(OC3CCCC3)c3c(-c4ccc5nc(C)oc5c4)c[nH]c3n2)c(OC)c1 was run?
Answer: 42.9%

Question: Which viability, T/C does the source give for `O=c1[nH]cc(F)c(=O)[nH]1` + CNC(=O)c1ccc(Nc2nc(OC3CCCC3)c3c(-c4ccc5nc(C)oc5c4)c[nH]c3n2)c(OC)c1 here?
Answer: 39.1%

Same assay, conditions: second compound 0.0316 µM; first compound 0.316 µM; stronger effect = lower value

Question: For `CCc1c2c(nc3ccc(O)cc13)-c1cc3c(c(=O)n1C2)COC(=O)[C@]3(O)CC` + CNC(=O)c1ccc(Nc2nc(OC3CCCC3)c3c(-c4ccc5nc(C)oc5c4)c[nH]c3n2)c(OC)c1, which viability, T/C is on record?
Answer: 6.53%

Question: Which viability, T/C does the source give for `Nc1ccn(C2OC(CO)C(O)C2(F)F)c(=O)n1` (stereo unspecified) + CNC(=O)c1ccc(Nc2nc(OC3CCCC3)c3c(-c4ccc5nc(C)oc5c4)c[nH]c3n2)c(OC)c1 here?
Answer: 7.11%

Question: With `O=C(c1cc(Cc2n[nH]c(=O)c3ccccc23)ccc1F)N1CCN(C(=O)C2CC2)CC1` + CNC(=O)c1ccc(Nc2nc(OC3CCCC3)c3c(-c4ccc5nc(C)oc5c4)c[nH]c3n2)c(OC)c1 as the molecule, how does the viability, T/C read?
Answer: 38%

Question: `O=c1[nH]cc(F)c(=O)[nH]1` + CNC(=O)c1ccc(Nc2nc(OC3CCCC3)c3c(-c4ccc5nc(C)oc5c4)c[nH]c3n2)c(OC)c1 was tested. Which viability, T/C did it give?
Answer: 24.6%

Same assay, conditions: second compound 0.0316 µM; first compound 1 µM; stronger effect = lower value

Question: For `CCc1c2c(nc3ccc(O)cc13)-c1cc3c(c(=O)n1C2)COC(=O)[C@]3(O)CC` + CNC(=O)c1ccc(Nc2nc(OC3CCCC3)c3c(-c4ccc5nc(C)oc5c4)c[nH]c3n2)c(OC)c1, which viability, T/C is on record?
Answer: 4.13%

Question: `Nc1ccn(C2OC(CO)C(O)C2(F)F)c(=O)n1` (stereo unspecified) + CNC(=O)c1ccc(Nc2nc(OC3CCCC3)c3c(-c4ccc5nc(C)oc5c4)c[nH]c3n2)c(OC)c1 was tested. Which viability, T/C did it give?
Answer: 7.29%
